System: normal human lung fibroblasts
Test: Ribosomal profiling: translational efficiency in TGFβ-treated fibroblasts
Type: cell-based
Summary of the method: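 Genome-wide RPF and total RNA libraries (ARTseq, RNA-Seq) were made from lysates of cycloheximide-treated, PBS-washed cells. After trimming and human-genome mapping, per-gene coding-region counts were compared between RPF and RNA for translational efficiency. Genes scoring low in either fraction were dropped.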

## CC(C)n1nc(-c2cc3cc(O)ccc3[nH]2)c2c(N)ncnc21 [PP242]
ENSG00000164292, TGFβ-treated fibroblasts
  renormalizing the translational profile of RHOBTB3: − (− = <0.9)
ENSG00000164588, TGFβ-treated fibroblasts
  renormalizing the translational profile of HCN1: − (− = <0.9)
ENSG00000165502, TGFβ-treated fibroblasts
  renormalizing the translational profile of RPL36AL: − (− = <0.9)
ENSG00000166441, TGFβ-treated fibroblasts
  renormalizing the translational profile of RPL27A: − (− = <0.9)
ENSG00000166503, TGFβ-treated fibroblasts
  renormalizing the translational profile of RP11-382A20.3.1: − (− = <0.9)
ENSG00000166839, TGFβ-treated fibroblasts
  renormalizing the translational profile of ANKDD1A: + (+ = 0.9 to 1.5)
ENSG00000167526, TGFβ-treated fibroblasts
  renormalizing the translational profile of RPL13: − (− = <0.9)
ENSG00000167658, TGFβ-treated fibroblasts
  renormalizing the translational profile of EEF2: + (+ = 0.9 to 1.5)
ENSG00000169239, TGFβ-treated fibroblasts
  renormalizing the translational profile of CA5B: + (+ = 0.9 to 1.5)
ENSG00000170681, TGFβ-treated fibroblasts
  renormalizing the translational profile of MURC: − (− = <0.9)
ENSG00000170801, TGFβ-treated fibroblasts
  renormalizing the translational profile of HTRA3: − (− = <0.9)
ENSG00000171408, TGFβ-treated fibroblasts
  renormalizing the translational profile of PDE7B: − (− = <0.9)
ENSG00000171517, TGFβ-treated fibroblasts
  renormalizing the translational profile of LPAR3: − (− = <0.9)
ENSG00000171793, TGFβ-treated fibroblasts
  renormalizing the translational profile of CTPS: − (− = <0.9)
ENSG00000172053, TGFβ-treated fibroblasts
  renormalizing the translational profile of QARS: − (− = <0.9)
ENSG00000172809, TGFβ-treated fibroblasts
  renormalizing the translational profile of RPL38: − (− = <0.9)
ENSG00000174100, TGFβ-treated fibroblasts
  renormalizing the translational profile of MRPL45: + (+ = 0.9 to 1.5)
ENSG00000174444, TGFβ-treated fibroblasts
  renormalizing the translational profile of RPL4: − (− = <0.9)
ENSG00000174748, TGFβ-treated fibroblasts
  renormalizing the translational profile of RPL15: − (− = <0.9)
ENSG00000175084, TGFβ-treated fibroblasts
  renormalizing the translational profile of DES: − (− = <0.9)
ENSG00000175390, TGFβ-treated fibroblasts
  renormalizing the translational profile of EIF3F: − (− = <0.9)
ENSG00000175505, TGFβ-treated fibroblasts
  renormalizing the translational profile of CLCF1: − (− = <0.9)
ENSG00000176020, TGFβ-treated fibroblasts
  renormalizing the translational profile of AMIGO3: − (− = <0.9)
ENSG00000176438, TGFβ-treated fibroblasts
  renormalizing the translational profile of C14orf49: − (− = <0.9)
ENSG00000177600, TGFβ-treated fibroblasts
  renormalizing the translational profile of RPLP2: − (− = <0.9)
ENSG00000178035, TGFβ-treated fibroblasts
  renormalizing the translational profile of IMPDH2: − (− = <0.9)
ENSG00000178401, TGFβ-treated fibroblasts
  renormalizing the translational profile of DNAJC22: + (+ = 0.9 to 1.5)
ENSG00000182899, TGFβ-treated fibroblasts
  renormalizing the translational profile of RPL35A: + (+ = 0.9 to 1.5)
ENSG00000182909, TGFβ-treated fibroblasts
  renormalizing the translational profile of LENG9: − (− = <0.9)
ENSG00000183172, TGFβ-treated fibroblasts
  renormalizing the translational profile of C22orf32: − (− = <0.9)
ENSG00000183971, TGFβ-treated fibroblasts
  renormalizing the translational profile of NPW: − (− = <0.9)
ENSG00000184588, TGFβ-treated fibroblasts
  renormalizing the translational profile of PDE4B: − (− = <0.9)
ENSG00000185008, TGFβ-treated fibroblasts
  renormalizing the translational profile of ROBO2: − (− = <0.9)
ENSG00000185920, TGFβ-treated fibroblasts
  renormalizing the translational profile of PTCH1: − (− = <0.9)
ENSG00000186184, TGFβ-treated fibroblasts
  renormalizing the translational profile of POLR1D: − (− = <0.9)
ENSG00000187240, TGFβ-treated fibroblasts
  renormalizing the translational profile of DYNC2H1: − (− = <0.9)
ENSG00000188846, TGFβ-treated fibroblasts
  renormalizing the translational profile of RPL14: − (− = <0.9)
ENSG00000188906, TGFβ-treated fibroblasts
  renormalizing the translational profile of LRRK2: − (− = <0.9)
ENSG00000196531, TGFβ-treated fibroblasts
  renormalizing the translational profile of NACA: − (− = <0.9)
ENSG00000196878, TGFβ-treated fibroblasts
  renormalizing the translational profile of LAMB3: − (− = <0.9)
ENSG00000197111, TGFβ-treated fibroblasts
  renormalizing the translational profile of PCBP2: − (− = <0.9)
ENSG00000197442, TGFβ-treated fibroblasts
  renormalizing the translational profile of MAP3K5: − (− = <0.9)
ENSG00000197756, TGFβ-treated fibroblasts
  renormalizing the translational profile of RPL37A: − (− = <0.9)
ENSG00000197958, TGFβ-treated fibroblasts
  renormalizing the translational profile of RPL12: − (− = <0.9)
ENSG00000198121, TGFβ-treated fibroblasts
  renormalizing the translational profile of LPAR1: − (− = <0.9)
ENSG00000198242, TGFβ-treated fibroblasts
  renormalizing the translational profile of RPL23A: − (− = <0.9)
ENSG00000198523, TGFβ-treated fibroblasts
  renormalizing the translational profile of PLN: − (− = <0.9)
ENSG00000198755, TGFβ-treated fibroblasts
  renormalizing the translational profile of RPL10A: − (− = <0.9)
ENSG00000198848, TGFβ-treated fibroblasts
  renormalizing the translational profile of CES1: − (− = <0.9)
ENSG00000198918, TGFβ-treated fibroblasts
  renormalizing the translational profile of RPL39: − (− = <0.9)
ENSG00000204397, TGFβ-treated fibroblasts
  renormalizing the translational profile of CARD16: − (− = <0.9)
ENSG00000204628, TGFβ-treated fibroblasts
  renormalizing the translational profile of GNB2L1: + (+ = 0.9 to 1.5)
ENSG00000215472, TGFβ-treated fibroblasts
  renormalizing the translational profile of RPL17: − (− = <0.9)
ENSG00000229117, TGFβ-treated fibroblasts
  renormalizing the translational profile of RPL41: − (− = <0.9)
ENSG00000241685, TGFβ-treated fibroblasts
  renormalizing the translational profile of ARPC1A: − (− = <0.9)
ENSG00000250479, TGFβ-treated fibroblasts
  renormalizing the translational profile of CHCHD10: +++ (+++ = >2.0)
ENSG00000254772, TGFβ-treated fibroblasts
  renormalizing the translational profile of EEF1G: − (− = <0.9)
TGFβ and PP242, of 141 genes, FIG. 8
  number of the 141 eIF2 pathway genes that moved toward normal: 104
TGFβ and PP242, out of 12 genes, FIG. 7
  number of the 12 eIF2 signaling pathway genes that moved toward the untransformed, normal state: 11
Gene RPS2 (ENSG00000140988), TGFβ-treated fibroblasts
  effect in renormalizing the translational profile of the gene: − (− = <0.9)
Gene RPS3 (ENSG00000149273), TGFβ-treated fibroblasts
  effect in renormalizing the translational profile of the gene: − (− = <0.9)
Gene RPS3A (ENSG00000145425), TGFβ-treated fibroblasts
  effect in renormalizing the translational profile of the gene: − (− = <0.9)
Gene RPS4X (ENSG00000198034), TGFβ-treated fibroblasts
  effect in renormalizing the translational profile of the gene: − (− = <0.9)
Gene RPS4Y1 (ENSG00000129824), TGFβ-treated fibroblasts
  effect in renormalizing the translational profile of the gene: − (− = <0.9)
Gene RPS5 (ENSG00000083845), TGFβ-treated fibroblasts
  effect in renormalizing the translational profile of the gene: − (− = <0.9)
Gene RPS6 (ENSG00000137154), TGFβ-treated fibroblasts
  effect in renormalizing the translational profile of the gene: − (− = <0.9)
